# Measurements as given in ChEMBL document CHEMBL1157521, “Discovery of a potent, selective, and less flexible selective norepinephrine reuptake inhibitor (sNRI)” (Bioorg Med Chem Lett, 2008).
# Biological target: Sodium-dependent serotonin transporter (Homo sapiens, UniProt P31645);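 note: blockade of serotonin uptake through human SERT expressed in HEK293 cells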
# Format: cell-based, HEK293
# Chain of Sodium-dependent serotonin transporter (P31645 whole entry): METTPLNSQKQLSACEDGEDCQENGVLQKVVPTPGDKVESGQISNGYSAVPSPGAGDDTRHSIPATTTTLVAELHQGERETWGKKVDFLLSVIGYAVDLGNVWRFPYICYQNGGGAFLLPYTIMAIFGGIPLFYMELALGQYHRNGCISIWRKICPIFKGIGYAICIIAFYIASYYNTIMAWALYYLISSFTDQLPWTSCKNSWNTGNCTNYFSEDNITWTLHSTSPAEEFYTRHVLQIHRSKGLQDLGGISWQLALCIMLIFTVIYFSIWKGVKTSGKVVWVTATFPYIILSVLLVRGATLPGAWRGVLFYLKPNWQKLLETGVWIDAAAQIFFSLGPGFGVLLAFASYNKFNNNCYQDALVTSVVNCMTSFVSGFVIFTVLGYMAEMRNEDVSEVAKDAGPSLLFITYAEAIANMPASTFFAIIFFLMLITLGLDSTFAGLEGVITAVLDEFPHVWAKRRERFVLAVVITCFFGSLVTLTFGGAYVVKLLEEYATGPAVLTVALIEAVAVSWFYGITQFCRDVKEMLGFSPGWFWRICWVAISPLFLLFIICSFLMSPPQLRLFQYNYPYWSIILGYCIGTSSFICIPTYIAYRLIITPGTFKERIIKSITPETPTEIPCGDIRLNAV
row,SMILES,IC50 [nM]
1,Cc1ccccc1O[C@@H]1C[C@@H](N(C)C)Cc2ccccc21,700
2,COc1ccccc1O[C@H]1C[C@@H](N(C)C)c2ccccc21 (relative stereo),3500
3,CCN(CC)[C@@H]1C[C@H](Oc2ccccc2C)c2ccccc21 (relative stereo),3000
4,CN[C@@H]1Cc2ccccc2[C@H](Oc2ccccc2C)C1,3000
5,Cc1ccccc1O[C@H]1C[C@@H](N(C)C(C)C)c2ccccc21 (relative stereo),> 10000
6,Cc1ccccc1O[C@H]1C[C@H](N)c2ccccc21 (relative stereo),10000
7,Cc1ccccc1O[C@H]1CC[C@@H](N)c2ccccc21 (relative stereo),2300
8,Cc1ccccc1O[C@H]1C[C@H](N(C)C)c2ccccc21,150
9,COc1ccc(O[C@H]2C[C@@H](N(C)C)c3ccccc32)cc1,130
10,CN[C@@H]1C[C@H](Oc2ccccc2)c2ccccc21 (relative stereo),> 10000
11,CN(C)[C@@H]1C[C@H](Oc2ccc(Cl)cc2)c2ccccc21 (relative stereo),50
12,Cc1ccccc1O[C@H]1C[C@@H](N(C)C)c2ccccc21 (relative stereo),300
13,Cc1ccccc1O[C@@H]1CC[C@@H](N)c2ccccc21 (relative stereo),> 10000
14,CN(C)[C@@H]1C[C@H](Oc2ccccc2)c2ccccc21 (relative stereo),2000
15,CN[C@H]1Cc2ccccc2[C@H](Oc2ccccc2C)C1,590
16,CCN[C@@H]1C[C@H](Oc2ccccc2C)c2ccccc21 (relative stereo),8000
17,CNCCC(Oc1ccccc1OC)c1ccccc1 (stereo not given) [NISOXETINE],1400
18,CN[C@@H]1CC[C@H](Oc2ccccc2C)c2ccccc21 (relative stereo),5000
19,CN[C@H]1C[C@H](Oc2ccccc2C)c2ccccc21 (relative stereo),370
20,CN[C@@H]1C[C@H](Oc2ccccc2C)c2ccccc21 (relative stereo),1400
21,N[C@@H]1C[C@H](Oc2ccc(Cl)cc2)c2ccccc21 (relative stereo),9000
22,CN[C@@H]1C[C@H](Oc2ccc(Cl)cc2)c2ccccc21 (relative stereo),320
23,CN[C@@H]1Cc2ccccc2[C@@H](Oc2ccccc2C)C1,3300
24,CN[C@H]1Cc2ccccc2[C@@H](Oc2ccccc2C)C1,1100
25,N[C@@H]1C[C@H](Oc2ccccc2)c2ccccc21 (relative stereo),> 10000

# Biological target: Sodium-dependent dopamine transporter (Homo sapiens, UniProt Q01959)
# Sequence (Q01959 whole entry): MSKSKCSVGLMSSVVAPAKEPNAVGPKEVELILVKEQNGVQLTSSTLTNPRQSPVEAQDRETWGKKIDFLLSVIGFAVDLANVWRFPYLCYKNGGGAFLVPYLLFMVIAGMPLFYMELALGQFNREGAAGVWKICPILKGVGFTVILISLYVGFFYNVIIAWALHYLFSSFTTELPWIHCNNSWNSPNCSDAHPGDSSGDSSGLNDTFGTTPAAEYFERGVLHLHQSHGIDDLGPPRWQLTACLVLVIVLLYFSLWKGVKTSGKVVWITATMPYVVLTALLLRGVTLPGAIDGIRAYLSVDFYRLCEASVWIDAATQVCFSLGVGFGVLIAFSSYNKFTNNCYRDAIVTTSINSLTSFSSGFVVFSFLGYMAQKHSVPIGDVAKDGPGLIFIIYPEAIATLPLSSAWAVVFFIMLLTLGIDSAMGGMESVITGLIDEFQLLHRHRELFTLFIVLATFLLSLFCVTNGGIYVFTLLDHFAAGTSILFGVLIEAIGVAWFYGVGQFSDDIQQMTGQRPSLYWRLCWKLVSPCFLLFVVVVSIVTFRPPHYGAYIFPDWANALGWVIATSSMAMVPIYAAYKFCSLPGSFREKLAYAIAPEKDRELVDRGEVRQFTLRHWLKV
# Assay: Inhibition of dopamine uptake at human DAT in human HEK293 cells
# Format: cell-based
row,SMILES,IC50 [nM]
1,Cc1ccccc1O[C@@H]1C[C@@H](N(C)C)Cc2ccccc21,> 10000
2,COc1ccccc1O[C@H]1C[C@@H](N(C)C)c2ccccc21 (relative stereo),> 10000
3,CCN(CC)[C@@H]1C[C@H](Oc2ccccc2C)c2ccccc21 (relative stereo),2500
4,CN[C@@H]1Cc2ccccc2[C@H](Oc2ccccc2C)C1,> 10000
5,Cc1ccccc1O[C@H]1C[C@@H](N(C)C(C)C)c2ccccc21 (relative stereo),> 10000
6,Cc1ccccc1O[C@H]1C[C@H](N)c2ccccc21 (relative stereo),600
7,Cc1ccccc1O[C@H]1CC[C@@H](N)c2ccccc21 (relative stereo),1000
8,Cc1ccccc1O[C@H]1C[C@H](N(C)C)c2ccccc21,3400
9,COc1ccc(O[C@H]2C[C@@H](N(C)C)c3ccccc32)cc1,> 10000
10,CN[C@@H]1C[C@H](Oc2ccccc2)c2ccccc21 (relative stereo),5000
11,CN(C)[C@@H]1C[C@H](Oc2ccc(Cl)cc2)c2ccccc21 (relative stereo),7000
12,Cc1ccccc1O[C@H]1C[C@@H](N(C)C)c2ccccc21 (relative stereo),10000
13,Cc1ccccc1O[C@@H]1CC[C@@H](N)c2ccccc21 (relative stereo),1000
14,CN(C)[C@@H]1C[C@H](Oc2ccccc2)c2ccccc21 (relative stereo),> 10000
15,CN[C@H]1Cc2ccccc2[C@H](Oc2ccccc2C)C1,8000
16,CCN[C@@H]1C[C@H](Oc2ccccc2C)c2ccccc21 (relative stereo),2500
17,CN[C@@H]1CC[C@H](Oc2ccccc2C)c2ccccc21 (relative stereo),1000
18,CN[C@H]1C[C@H](Oc2ccccc2C)c2ccccc21 (relative stereo),180
19,CN[C@@H]1C[C@H](Oc2ccccc2C)c2ccccc21 (relative stereo),4600
20,N[C@@H]1C[C@H](Oc2ccc(Cl)cc2)c2ccccc21 (relative stereo),2400
21,CN[C@@H]1C[C@H](Oc2ccc(Cl)cc2)c2ccccc21 (relative stereo),4000
22,CN[C@@H]1Cc2ccccc2[C@@H](Oc2ccccc2C)C1,4500
23,CN[C@H]1Cc2ccccc2[C@@H](Oc2ccccc2C)C1,6000
24,N[C@@H]1C[C@H](Oc2ccccc2)c2ccccc21 (relative stereo),2000

# Biological target: Cytochrome P450 2D6 (Homo sapiens, UniProt P10635)
# Sequence (P10635 whole entry): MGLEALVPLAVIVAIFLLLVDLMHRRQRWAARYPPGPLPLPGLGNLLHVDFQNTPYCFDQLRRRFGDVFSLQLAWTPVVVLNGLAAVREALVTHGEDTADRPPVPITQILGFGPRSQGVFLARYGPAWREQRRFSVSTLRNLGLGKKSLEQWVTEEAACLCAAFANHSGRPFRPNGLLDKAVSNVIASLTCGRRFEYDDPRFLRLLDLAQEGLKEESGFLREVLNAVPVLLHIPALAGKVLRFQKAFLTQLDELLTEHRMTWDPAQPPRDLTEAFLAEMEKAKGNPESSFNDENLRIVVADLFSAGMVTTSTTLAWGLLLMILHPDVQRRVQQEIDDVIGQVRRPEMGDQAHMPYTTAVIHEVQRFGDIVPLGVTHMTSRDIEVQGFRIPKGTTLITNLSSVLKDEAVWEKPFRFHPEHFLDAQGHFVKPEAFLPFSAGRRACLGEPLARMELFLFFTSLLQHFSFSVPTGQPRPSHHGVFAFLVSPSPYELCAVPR
# Assay: Inhibition of CYP2D6
# Format: ADME
row,SMILES,IC50 [nM]
1,CN[C@H]1Cc2ccccc2[C@H](Oc2ccccc2C)C1,250

# Biological target: Sodium-dependent noradrenaline transporter (Homo sapiens, UniProt P23975)
# Sequence (P23975 whole entry): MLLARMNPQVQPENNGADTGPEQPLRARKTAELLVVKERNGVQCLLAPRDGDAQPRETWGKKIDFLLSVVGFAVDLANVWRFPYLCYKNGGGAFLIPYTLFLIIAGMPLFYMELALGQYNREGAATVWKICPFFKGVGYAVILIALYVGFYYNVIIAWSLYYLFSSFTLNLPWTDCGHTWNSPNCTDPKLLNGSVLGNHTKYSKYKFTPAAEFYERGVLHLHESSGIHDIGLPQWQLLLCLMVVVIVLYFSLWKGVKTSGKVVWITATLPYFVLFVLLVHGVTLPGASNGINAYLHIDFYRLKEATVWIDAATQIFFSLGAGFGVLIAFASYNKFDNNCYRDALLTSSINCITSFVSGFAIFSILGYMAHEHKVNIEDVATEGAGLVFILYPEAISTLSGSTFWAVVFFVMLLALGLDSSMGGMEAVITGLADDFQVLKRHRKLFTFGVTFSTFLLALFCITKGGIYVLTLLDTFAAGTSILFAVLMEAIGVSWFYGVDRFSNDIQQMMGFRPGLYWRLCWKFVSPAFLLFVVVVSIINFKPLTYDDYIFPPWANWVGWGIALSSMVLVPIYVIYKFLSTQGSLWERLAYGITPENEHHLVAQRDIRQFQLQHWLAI
# Assay: Inhibition of norepinephrine uptake at human NET in human HEK293 cells
# Format: cell-based
row,SMILES,IC50 [nM]
1,Cc1ccccc1O[C@@H]1C[C@@H](N(C)C)Cc2ccccc21,430
2,COc1ccccc1O[C@H]1C[C@@H](N(C)C)c2ccccc21 (relative stereo),3000
3,CCN(CC)[C@@H]1C[C@H](Oc2ccccc2C)c2ccccc21 (relative stereo),2000
4,CN[C@@H]1Cc2ccccc2[C@H](Oc2ccccc2C)C1,190
5,Cc1ccccc1O[C@H]1C[C@@H](N(C)C(C)C)c2ccccc21 (relative stereo),1100
6,Cc1ccccc1O[C@H]1C[C@H](N)c2ccccc21 (relative stereo),840
7,Cc1ccccc1O[C@H]1CC[C@@H](N)c2ccccc21 (relative stereo),630
8,Cc1ccccc1O[C@H]1C[C@H](N(C)C)c2ccccc21,150
9,COc1ccc(O[C@H]2C[C@@H](N(C)C)c3ccccc32)cc1,6000
10,CN[C@@H]1C[C@H](Oc2ccccc2)c2ccccc21 (relative stereo),2000
11,CN(C)[C@@H]1C[C@H](Oc2ccc(Cl)cc2)c2ccccc21 (relative stereo),1600
12,Cc1ccccc1O[C@H]1C[C@@H](N(C)C)c2ccccc21 (relative stereo),150
13,Cc1ccccc1O[C@@H]1CC[C@@H](N)c2ccccc21 (relative stereo),950
14,CN(C)[C@@H]1C[C@H](Oc2ccccc2)c2ccccc21 (relative stereo),800
15,CN[C@H]1Cc2ccccc2[C@H](Oc2ccccc2C)C1,8
16,CCN[C@@H]1C[C@H](Oc2ccccc2C)c2ccccc21 (relative stereo),3000
17,CN[C@@H]1CC[C@H](Oc2ccccc2C)c2ccccc21 (relative stereo),520
18,CN[C@H]1C[C@H](Oc2ccccc2C)c2ccccc21 (relative stereo),72
19,CN[C@@H]1C[C@H](Oc2ccccc2C)c2ccccc21 (relative stereo),660
20,N[C@@H]1C[C@H](Oc2ccc(Cl)cc2)c2ccccc21 (relative stereo),4000
21,CN[C@@H]1C[C@H](Oc2ccc(Cl)cc2)c2ccccc21 (relative stereo),4000
22,CN[C@@H]1Cc2ccccc2[C@@H](Oc2ccccc2C)C1,200
23,CN[C@H]1Cc2ccccc2[C@@H](Oc2ccccc2C)C1,160
24,N[C@@H]1C[C@H](Oc2ccccc2)c2ccccc21 (relative stereo),5000

# Biological target: 5-hydroxytryptamine receptor 2B (Homo sapiens) (UniProt P41595)
# Sequence (P41595 whole entry): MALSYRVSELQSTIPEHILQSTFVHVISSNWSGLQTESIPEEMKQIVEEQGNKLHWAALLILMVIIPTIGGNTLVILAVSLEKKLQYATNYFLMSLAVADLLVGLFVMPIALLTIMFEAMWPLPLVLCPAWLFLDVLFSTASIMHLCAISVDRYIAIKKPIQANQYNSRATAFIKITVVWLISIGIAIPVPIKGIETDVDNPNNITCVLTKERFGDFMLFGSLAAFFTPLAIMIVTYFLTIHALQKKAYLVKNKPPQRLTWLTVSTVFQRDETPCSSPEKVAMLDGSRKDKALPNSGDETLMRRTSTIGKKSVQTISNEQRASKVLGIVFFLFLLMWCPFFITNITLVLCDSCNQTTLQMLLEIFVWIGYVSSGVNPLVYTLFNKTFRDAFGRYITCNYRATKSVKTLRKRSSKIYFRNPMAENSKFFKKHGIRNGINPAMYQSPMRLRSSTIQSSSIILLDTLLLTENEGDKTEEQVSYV
# Assay: Binding affinity to 5HT2B
row,SMILES,Activity [nM]
1,CN[C@H]1Cc2ccccc2[C@H](Oc2ccccc2C)C1,250
